Results reported in patent US20230026259A1, “CA2 COMPOSITIONS AND METHODS FOR TUNABLE REGULATION” (Obsidian Therapeutics, Inc., priority 2019, published 2023).

Columns and labels:
Format in all cases: cell-based
human primary T cells [1] = test: IL15-dependent expansion: T cell numbers and CD4/CD8 ratio by flow cytometry; settings: media alone
Method: (§1) To test IL15-dependent expansion, beads were removed on day 10 and cells were washed. […] The T cell numbers (Table 30) and the change in CD4/CD8 ratio (Table 31) were determined by flow cytometry.

human primary T cells [2] = test: Expression of IL15 chimeric constructs by flow cytometry (percent IL15 positive cells); settings: for Percent of cells IL15 positive: media alone
From the text: In vitro activity of IL15 chimeric constructs OT-002019 ((Met; CD34 (aa 1-32 of WT, M1G, S32A); IL15 (30-162 of WT); Linker ((GS)15); CD8a Hinge and Transmembrane Domain; Linker (GS); stop), amino acid SEQ ID NO: 210876, nucleic acid SEQ ID NO: 210877) and OT-002090 ((Ig Kappa light chain leader; IL15 (49-162 of WT); Linker ((GS)15); B7-1 Hinge, Transmembrane Domain and Tail; Linker (GS); stop), amino acid SEQ ID NO: 210878, nucleic acid SEQ ID NO: 210879) and CA2 regulated IL15 chimeric construct (OT-002094) were tested in human primary T cells. Human primary T cells were transduced with lentivirus 24 hours after activation with CD3/CD28 beads. Cells were expanded for 10 days. […] The percentage of IL15 positive cells obtained for each treatment group is as follows (a) OT-002019: 82.3% (b) OT-002090: 43.6% (c) OT-002094 with DMSO: 0.7% (d) OT-002094 with 10 μM Acz: 27.9% and (e) untransduced (UT): 0.3%.
as §1

NIH3T3 cells [3] = test: Destabilization mutant screening of human CA2 linked to GFP, ligand response by FACS (Valdecoxib, Celecoxib, Acetazolamide)
Method: To identify destabilizing mutations of human CA2 that are stabilized upon ligand binding to CA2, two rounds of mutant screening were performed, using a lentivirus CA2 mutant library provided by Genscript (China). These methods were used to generate a library of mutant polypeptides using mutagenesis primers and error prone PCR. Lentiviral vectors expressing the template, wild-type human CA2 operably linked to GFP(OT-001986) was also provided by Genscript along with the CA2 mutant library. The library was packaged into lentivirus, transduced into NIH3T3 cells at a multiplicity of infection (MOI) of approximately 0.3 and select stable cell pools were derived by selecting with selection marker puromycin.
To identify cell pools containing destabilizing mutants of CA2 that are stabilizing when CA2 is bound to its corresponding ligand, cells were sorted using FACS. In the initial round, the bottom 15% of population that was GFP negative in the absence of ligand was selected. Cells were expanded and then treated with 10 μM Celecoxib for 24 hours and harvested for cell sorting. The top 11% GFP positive cells which were also responsive to ligand treatment compared to untreated were collected. Celecoxib was removed from the cultures and replaced with DMSO. […] Genomic DNA was isolated and amplified CA2 mutants were reintroduced to the lentiviral vectors where CA2 was operably linked to GFP. The constructs were transduced into NIH3T3 cells with lentivirus vectors for each clone. The cells were treated with 10 μM Valdecoxib or 10 μM Celecoxib for 24 hours and analyzed by FACS. […] In Table 25, the Construct ID (OT-XXXXXX) refers to the construct which includes the referenced CA2 mutant and the Library ID (LibCXXXXXX) refers to the CA2 mutant itself.
The response of NIH3T3 cells to varying doses of Valdecoxib or Celecoxib for 24 hours was measured and analyzed by FACS.
Clones treated with different ligands were compared to examine the behavior of each mutant with the ligands.

NIH3T3 cells [4] = test: Immunoblotting of cell lysates for GFP after ligand treatment; settings: NIH3T3 cells, 0.3, 1, 3, 10 or 30 μM Acetazolamide, 24 hours
Method: The protein expression in the presence of ligand was measured by immunoblotting the cell lysates for GFP.
The protein expression in the presence of ligand was measured by immunoblotting cell lysates for GFP.

[5] = NIH3T3, 10 μM Celecoxib vs DMSO
[6] = NIH3T3, 10 μM Valdecoxib vs DMSO
[7] = NIH3T3, Celecoxib μM (concentration not given)
[8] = NIH3T3, Valdecoxib μM (concentration not given)

Substance | Median PE (NIH3T3 cells [3]; NIH3T3, 10 μM Celecoxib) | SR (stabilization ratio) (NIH3T3 cells [3]; [5]) | Median PE (NIH3T3 cells [3]; NIH3T3, 10 μM Valdecoxib) | SR (stabilization ratio) (NIH3T3 cells [3]; [6]) | Median PE (NIH3T3 cells [3]; NIH3T3, DMSO) | SR (stabilization ratio) (NIH3T3 cells [3]; NIH3T3, DMSO (reference)) | MFI, comparative analysis, normalized to parental day 1 (NIH3T3 cells [3]; [7]) | MFI, comparative analysis (NIH3T3 cells [3]; NIH3T3, DMSO) | MFI, comparative analysis, normalized to parental day 1 (NIH3T3 cells [3]; [8]) | other results
(Ig Kappa light chain leader; IL15 (49-162 of WT); Linker ((GS)15); B7-1 Hinge, Transmembrane Domain and Tail; Linker (GS); stop) [OT-002090] | – | – | – | – | – | – | – | – | – | CD4/CD8 Ratio (human primary T cells [1]; day 0 in culture): 3.79; T Cell Numbers (human primary T cells [1]; day 0 in culture): 1.0E+06; CD4/CD8 Ratio (human primary T cells [1]; day 3 in culture): 0.66; T Cell Numbers (human primary T cells [1]; day 3 in culture): 1.3E+06; CD4/CD8 Ratio (human primary T cells [1]; day 7 in culture): 0.09; T Cell Numbers (human primary T cells [1]; day 7 in culture): 4.1E+06; CD4/CD8 Ratio (human primary T cells [1]; day 10 in culture): 0.04; T Cell Numbers (human primary T cells [1]; day 10 in culture): 1.0E+07; Percent of cells IL15 positive (human primary T cells [2]; day 0 in culture): 30%; Percent of cells IL15 positive (human primary T cells [2]; day 3 in culture): 40%; Percent of cells IL15 positive (human primary T cells [2]; day 7 in culture): 38%; Percent of cells IL15 positive (human primary T cells [2]; day 10 in culture): 16%; percentage of IL15 positive cells (human primary T cells [2]; human primary T cells, day 6, no ligand stated): 43.6%
CA2 (aa 2-260 of WT, N61R, K80M, K212N, N231T, L250P) [LibC000198] | 535 | 1.95 | 552 | 2 | 275 | 1 | – | – | – | –
CA2 (aa 2-260 of WT, S73F) [LibC000212] | 30700 | 1.02 | 30700 | 1.02 | 30100 | 1 | – | – | – | –
CA2 (aa 2-260 of WT, G12R) [LibC000211] | 20800 | 1.6 | 19800 | 1.52 | 13000 | 1 | 16550.54 | 10344.09 | 15754.84 | –
CA2 (aa 2-260 of WT, I59N, G102R) [LibC000184] | – | – | – | – | – | – | 4660.217 | 380 | 3478.892 | MFI, comparative analysis (NIH3T3 cells [3]; NIH3T3, Acetazolamide 10 μM): 9295; MFI, comparative analysis (NIH3T3 cells [3]; NIH3T3, Acetazolamide 30 μM): 10900; GFP protein expression by immunoblot, Acetazolamide (NIH3T3 cells [4]): stabilization of GFP with increasing ligand doses
